In patent US5674854A, “Inclusion complex of beta-cyclodextrin and diclofenac, its preparation and use” (Farmarc Nederland BV, priority 1993, dated 1997):

Assays:
[1] = physchem; assay type: physicochemical; details: identical conditions (deionized water, room temperature, 24 hours); read-out: equilibrium solubility of diclofenac sodium in the absence of beta cyclodextrin
Description: The vial is sealed and placed in a laboratory shaker. The mixture is allowed to shake for 5 minutes and then equilibrated for 24 hours. The supernatant is filtered through a 0,22 micron filter and analyzed for diclofenac concentration by HPLC.

[2] = phase solubility analysis; cited from earlier work

O=C(O)Cc1ccccc1Nc1c(Cl)cccc1Cl [diclofenac sodium]
solubility thermodynamic at 24 h [1]: 5000 µg/mL

O=C(O)Cc1ccccc1Nc1c(Cl)cccc1Cl [diclofenac, 2-[(2,6-dichlorophenyl)amino]benzeneacetic acid]
effect of beta-cyclodextrin and hydroxyalkyl ether derivatives on aqueous solubility of diclofenac [2]: increase the aqueous solubility
